Drawing on ChEMBL document CHEMBL3286346, “Ultrapure ajulemic acid has improved CB2 selectivity with reduced CB1 activity” (Bioorg Med Chem, 2014), this text covers Activity, Ki and Ratio Ki for 2 compounds.

Activity calls are given as the source filed them. The rule behind the calls is not given here.

The test system of data set [1] is Mus musculus. Nature of the data set: Antinociceptive activity in CD1 mouse assessed as increase in paw withdrawal latency at 0.05 to 5 mg/kg, po measured after 90 mins post dose by hot plate test relative to vehicle-treated control. The class given is functional, organism-based.
Data set [2] deals with HL-60. Kind of data set: Antiinflammatory activity in human HL60 cells assessed as stimulation of PGJ synthesis after 2 hrs by ELISA in presence of CB1 antagonist SR141716. The class given is functional, cell-based. (In an ELISA, binding on a coated surface is turned into a signal by an enzyme label.)
In data set [3] the test system is Mus musculus. Nature of the data set: Toxicity in CD1 mouse assessed as time immobility on the ring for 5 mins at 30 mg/kg, po measured after 90 mins post dose by ring catalepsy test. The class given is organism-based. Details: dose 30 mg/kg, route oral. The note with it: in vivo.
Data set [4] concerns HL-60. Kind of data set: Antiinflammatory activity in human HL60 cells assessed as stimulation of PGJ synthesis after 2 hrs by ELISA. The class given is functional, cell-based.
The next data set addresses Cannabinoid receptor 2 (Homo sapiens, UniProt P34972). Nature of the data set: Displacement of [3H]-CP-55940 from human CB2 receptor expressed in HEK293T cell membranes by scintillation counting. On the set-up: species or system HEK-293T. (In general: In a radioligand displacement assay an active substance lowers the binding of a labelled ligand.)
Data set [5] has as its system HL-60. Nature of the data set: Antiinflammatory activity in human HL60 cells assessed as stimulation of PGJ synthesis after 2 hrs by ELISA in presence of CB2 antagonist SR144528. The class given is functional, cell-based.
For data set [6], the system named is Mus musculus. Kind of data set: Toxicity in CD1 mouse assessed as hypothermia measured as lowering of core body temperature at 3 to 56 mg/kg, po measured after 90 mins post dose. The class given is organism-based. On the set-up: dose 3-56 mg/kg, route oral. To be noted: in vivo, 1.5 h.
In the next data set the target is Cannabinoid receptor 1 (Homo sapiens, UniProt P21554). Kind of data set: biochemical. The class given is cell-based, HEK-293T.
A further data set has as its system HEK-293T. Kind of data set: Selectivity ratio of Ki for human CB1 receptor expressed in HEK293T cell membranes to human CB2 receptor expressed in HEK293T cell membranes. The class given is cell-based.
Data set [7] has as its system Mus musculus. Kind of data set: Antinociceptive activity in CD1 mouse assessed as increase in paw withdrawal latency at 56 mg/kg, po measured after 90 mins post dose by hot plate test relative to vehicle-treated control. The class given is functional, organism-based. On the set-up: dose 56 mg/kg.

Chain of Cannabinoid receptor 1 (P21554 whole entry): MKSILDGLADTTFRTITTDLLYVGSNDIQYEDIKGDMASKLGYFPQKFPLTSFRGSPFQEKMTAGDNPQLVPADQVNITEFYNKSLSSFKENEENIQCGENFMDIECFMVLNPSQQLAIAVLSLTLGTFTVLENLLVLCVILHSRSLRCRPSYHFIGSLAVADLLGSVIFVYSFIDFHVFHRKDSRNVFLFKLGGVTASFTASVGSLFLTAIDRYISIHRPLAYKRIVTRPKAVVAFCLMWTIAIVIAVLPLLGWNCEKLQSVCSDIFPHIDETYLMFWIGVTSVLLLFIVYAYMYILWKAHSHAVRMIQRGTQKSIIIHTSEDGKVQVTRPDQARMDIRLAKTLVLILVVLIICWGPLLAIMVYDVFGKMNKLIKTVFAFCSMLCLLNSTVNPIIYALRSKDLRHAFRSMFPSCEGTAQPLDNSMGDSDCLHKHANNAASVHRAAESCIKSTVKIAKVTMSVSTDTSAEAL
Chain of Cannabinoid receptor 2 (P34972 whole entry): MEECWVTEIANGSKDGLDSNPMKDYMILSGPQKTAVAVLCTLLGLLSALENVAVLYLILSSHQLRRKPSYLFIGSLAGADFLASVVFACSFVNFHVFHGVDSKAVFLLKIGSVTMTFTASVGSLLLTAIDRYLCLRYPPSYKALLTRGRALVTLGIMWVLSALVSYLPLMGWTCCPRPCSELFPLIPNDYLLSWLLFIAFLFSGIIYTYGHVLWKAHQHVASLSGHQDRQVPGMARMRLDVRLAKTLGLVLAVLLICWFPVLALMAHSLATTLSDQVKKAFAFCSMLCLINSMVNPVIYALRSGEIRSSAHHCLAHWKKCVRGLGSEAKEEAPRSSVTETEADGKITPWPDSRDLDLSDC
Description for Cannabinoid receptor 1: Displacement of [3H]-CP-55940 from human CB1 receptor expressed in HEK293T cell membranes by scintillation counting

Regarding `CCCCCCC(C)(C)c1cc(O)c2c(c1)OC(C)(C)[C@@H]1CC=C(C(=O)O)C[C@@H]21`, the result with Mus musculus [1] was Active.
As for `CCCCCCC(C)(C)c1cc(OC(C)=O)c2c(c1)OC(C)(C)[C@@H]1CC=C(C(=O)O)C[C@@H]21`, the result with HL-60 [2], in the data set with HL-60 [5] and in the data set with Mus musculus [7] was inactive. Also, the figures for the Activity entry in the data set on Mus musculus [3] and in the data set with Mus musculus [6] were “Toxic” and “Non-toxic”, respectively. Further, the result with HL-60 [4] was Active. Also, the Ki (in general, the dissociation constant of the complex between target and ligand, obtained from inhibition or displacement) at Cannabinoid receptor 2 was determined as 51 nM; at Cannabinoid receptor 1 it was 628 nM. The Ratio Ki in the data set with HEK-293T worked out at 12.3.
